{"source": "patent US12509445B2", "about": "“Herbicidally active 4-cyclopropyl-6-[4-(trifluormethyl)pyrazol-1-yl)]pyrimidines” (Bayer Aktiengesellschaft, priority 2019, dated 2025)", "assay_type_in_all_cases": "in vivo", "key": {"[1]": {"tested_on": "Pharbitis purpurea (PHBPU)", "assay": "Post-emergence herbicidal action", "details": "320 g/ha, visual rating after about 3 weeks vs untreated controls, 100% = plants have died", "description": "(§1) Seeds of monocotyledonous and dicotyledonous weeds and crop plants are placed in sandy loam in plastic or organic plant pots, covered with soil and cultivated in a greenhouse under controlled growth conditions. 2 to 3 weeks after sowing, the test plants are treated at the one-leaf stage. The compounds of the invention, formulated in the form of wettable powders (WP) or as emulsion concentrates (EC), are then sprayed onto the green parts of the plants as aqueous suspension or emulsion with addition of 0.5% additive at a water application rate of 600 l/ha (converted). After the test plants have been kept in the greenhouse under optimum growth conditions for about 3 weeks, the activity of the preparations is rated visually in comparison to untreated controls. For example, 100% activity=the plants have died, 0% activity=like control plants.\n(§2) The abbreviations used here have the following meanings: • ABUTH Abutilon theophrasti • AMARE Amaranlhus retroflexus • CYPES Cyperus serotinus • ECHCGEchinocloa crus galli • LOLRI Lolium rigidum Gaudin • PHBPU Pharbitis purpurcum • SETVI Setaria viridis • VERPE Veronica persica • ALOMY Alopccurus myosuroides • AVEFA Avena fatua • DIGSA Digitaria sanguinalis • LOLMU Lolium multiflorum • MATIN Matricaria inodora • POLCO Polygonum convolvulus • STEME Stellaria media • VIOTR Viola tricolor"}, "Veronica persica (VERPE) [2]": {"tested_on": "Veronica persica (VERPE)", "assay": "Post-emergence herbicidal action", "details": "320 g/ha, visual rating after about 3 weeks vs untreated controls, 100% = plants have died", "description": "as §1, §2"}, "[3]": {"tested_on": "Amaranthus retroflexus (AMARE)", "assay": "Post-emergence herbicidal action", "details": "320 g/ha, visual rating after about 3 weeks vs untreated controls, 100% = plants have died", "description": "as §1, §2"}, "Viola tricolor (VIOTR) [4]": {"tested_on": "Viola tricolor (VIOTR)", "assay": "Post-emergence herbicidal action", "details": "320 g/ha, visual rating after about 3 weeks vs untreated controls, 100% = plants have died", "description": "as §1, §2"}, "Veronica persica (VERPE) [5]": {"tested_on": "Veronica persica (VERPE)", "assay": "Pre-emergence herbicidal action", "details": "320 g/ha, visual scoring after about 3 weeks vs untreated controls, 100% = plants have died", "source_text": "as §2\n(§3) Seeds of monocotyledonous and dicotyledonous weed plants and crop plants are placed in plastic or organic plant pots and covered with soil. The compounds of the invention, formulated in the form of wettable powders (WP) or as emulsion concentrates (EC), are then applied onto the surface of the covering soil as aqueous suspension or emulsion with addition of 0.5% additive at a water application rate of 600 l/ha (converted). After the treatment, the pots are placed in a greenhouse and kept under good growth conditions for the trial plants. After about 3 weeks, the effect of the preparations is scored visually in comparison with untreated controls as percentages. For example, 100% activity=the plants have died, 0% activity=like control plants."}, "[6]": {"tested_on": "Amaranthus retroflexus (AMARE)", "assay": "Pre-emergence herbicidal action", "details": "320 g/ha, visual scoring after about 3 weeks vs untreated controls, 100% = plants have died", "source_text": "as §2, §3"}, "[7]": {"tested_on": "Echinochloa crus-galli (ECHCG)", "assay": "Pre-emergence herbicidal action", "source_text": "as §2, §3\n(§4) The compounds according to the invention were tested by the post-emergence and pre-emergence methods under the conditions described above for comparative purposes with the structurally closest compounds known from WO 2005/089551 A1 (D1)."}, "[8]": {"tested_on": "Matricaria inodora (MATIN)", "assay": "Pre-emergence herbicidal action", "source_text": "as §2, §3, §4"}, "[9]": {"tested_on": "Polygonum convolvulus (POLCO)", "assay": "Pre-emergence herbicidal action", "source_text": "as §2, §3, §4"}, "Setaria viridis (SETVI) [10]": {"tested_on": "Setaria viridis (SETVI)", "assay": "Pre-emergence herbicidal action", "source_text": "as §2, §3, §4"}, "[11]": {"tested_on": "Alopecurus myosuroides (ALOMY)", "assay": "Pre-emergence herbicidal action", "source_text": "as §2, §3, §4"}, "Stellaria media (STEME) [12]": {"tested_on": "Stellaria media (STEME)", "assay": "Pre-emergence herbicidal action", "source_text": "as §2, §3, §4"}, "Viola tricolor (VIOTR) [13]": {"tested_on": "Viola tricolor (VIOTR)", "assay": "Pre-emergence herbicidal action", "source_text": "as §2, §3, §4"}, "[14]": {"tested_on": "Abutilon theophrasti (ABUTH)", "assay": "Post-emergence herbicidal action", "description": "as §1, §2, §4"}, "[15]": {"tested_on": "Echinochloa crus-galli (ECHCG)", "assay": "Post-emergence herbicidal action", "description": "as §1, §2, §4"}, "[16]": {"tested_on": "Matricaria inodora (MATIN)", "assay": "Post-emergence herbicidal action", "description": "as §1, §2, §4"}, "Avena fatua (AVEFA)": {"tested_on": "Avena fatua (AVEFA)", "assay": "Post-emergence herbicidal action", "description": "as §1, §2, §4"}, "[17]": {"tested_on": "Polygonum convolvulus (POLCO)", "assay": "Post-emergence herbicidal action", "details": "320 g/ha, visual rating after about 3 weeks vs untreated controls, 100% = plants have died", "description": "as §1, §2, §4"}, "Setaria viridis (SETVI) [18]": {"tested_on": "Setaria viridis (SETVI)", "assay": "Post-emergence herbicidal action", "description": "as §1, §2, §4"}, "[19]": {"tested_on": "Lolium multiflorum (LOLMU)", "assay": "Post-emergence herbicidal action", "details": "80 g of a.i./ha, comparative test", "description": "as §1, §2, §4"}, "Stellaria media (STEME) [20]": {"tested_on": "Stellaria media (STEME)", "assay": "Post-emergence herbicidal action", "description": "as §1, §2, §4"}, "[21]": {"tested_on": "harmful plants such as Abutilon theophrasti, Alopecurus myosuroides, Amaranthus retroflexus, Avena fatua, Echinochloa crus-galli, Matricaria inodora, Pharbitis …", "assay": "Post-emergence herbicidal action, summary in text", "details": "post-emergence treatment", "description": "as §1\nIn this case, for example, in the post-emergence process, the compounds No. 1-001 and 111-001 have very good herbicidal activity (80% to 100% herbicidal action) against harmful plants such as Abutilon theophrasti, Alopecurus myosuroides, Amaranthus retroflexus, Avena fatua, Echinochloa crus-galli, Matricaria inodora, Pharbitis purpurea, Setaria viridis, Stellaria media, Veronica persica and Viola tricolor at an application rate of 0.32 kg of active substance or less per hectare. At the same time, some compounds according to the invention leave graminaceous crops such as barley, wheat, rye, millet/sorghum, maize, rice or sugarcane virtually undamaged when applied by the post-emergence method, even at high active compound dosages. Some substances are additionally also benign to dicotyledonous crops such as soya, cotton, oilseed rape or sugarbeet."}, "[22]": {"details": "80 g of a.i./ha, comparative test"}, "[23]": {"details": "320 g/ha, visual scoring after about 3 weeks vs untreated controls, 100% = plants have died"}, "[24]": {"details": "320 g/ha, visual rating after about 3 weeks vs untreated controls, 100% = plants have died"}}}
{"smiles": "FC(F)(F)c1cnn(-c2cc(C3CC3)nc(Oc3csc(C(F)(F)F)c3)n2)c1", "note": "[IV-001]", "values": [{"measurement": "Post-emergence action PHBPU", "setting": "[1]", "value": 80, "unit": "%"}, {"measurement": "Post-emergence action VERPE", "setting": "Veronica persica (VERPE) [2]", "value": 100, "unit": "%"}, {"measurement": "Post-emergence action AMARE", "setting": "[3]", "value": 100, "unit": "%"}, {"measurement": "Post-emergence action VIOTR", "setting": "Viola tricolor (VIOTR) [4]", "value": 90, "unit": "%"}, {"measurement": "Pre-emergence action VERPE", "setting": "Veronica persica (VERPE) [5]", "value": 90, "unit": "%"}, {"measurement": "Pre-emergence action AMARE", "setting": "[6]", "value": 100, "unit": "%"}, {"measurement": "Herbicidal action against ECHCG", "setting": "[7]; [22]", "value": 70, "unit": "%"}, {"measurement": "Pre-emergence action ECHCG", "setting": "[7]; [23]", "value": 100, "unit": "%"}, {"measurement": "Herbicidal action against MATIN", "setting": "[8]; [22]", "value": 90, "unit": "%"}, {"measurement": "Pre-emergence action MATIN", "setting": "[8]; [23]", "value": 100, "unit": "%"}, {"measurement": "Herbicidal action against POLCO", "setting": "[9]; [22]", "value": 20, "unit": "%"}, {"measurement": "Pre-emergence action POLCO", "setting": "[9]; [23]", "value": 80, "unit": "%"}, {"measurement": "Herbicidal action against SETVI", "setting": "Setaria viridis (SETVI) [10]; [22]", "value": 90, "unit": "%"}, {"measurement": "Pre-emergence action SETVI", "setting": "Setaria viridis (SETVI) [10]; [23]", "value": 90, "unit": "%"}, {"measurement": "Herbicidal action against ALOMY", "setting": "[11]; [22]", "value": 70, "unit": "%"}, {"measurement": "Pre-emergence action ALOMY", "setting": "[11]; [23]", "value": 100, "unit": "%"}, {"measurement": "Herbicidal action against STEME", "setting": "Stellaria media (STEME) [12]; [22]", "value": 90, "unit": "%"}, {"measurement": "Pre-emergence action STEME", "setting": "Stellaria media (STEME) [12]; [23]", "value": 100, "unit": "%"}, {"measurement": "Herbicidal action against VIOTR", "setting": "Viola tricolor (VIOTR) [13]; [22]", "value": 90, "unit": "%"}, {"measurement": "Pre-emergence action VIOTR", "setting": "Viola tricolor (VIOTR) [13]; [23]", "value": 90, "unit": "%"}, {"measurement": "Herbicidal action against ABUTH", "setting": "[14]; [22]", "value": 80, "unit": "%"}, {"measurement": "Post-emergence action ABUTH", "setting": "[14]; [24]", "value": 90, "unit": "%"}, {"measurement": "Herbicidal action against ECHCG", "setting": "[15]; [22]", "value": 70, "unit": "%"}, {"measurement": "Post-emergence action ECHCG", "setting": "[15]; [24]", "value": 80, "unit": "%"}, {"measurement": "Herbicidal action against MATIN", "setting": "[16]; [22]", "value": 80, "unit": "%"}, {"measurement": "Post-emergence action MATIN", "setting": "[16]; [24]", "value": 90, "unit": "%"}, {"measurement": "Herbicidal action against AVEFA", "setting": "Avena fatua (AVEFA); [22]", "value": 60, "unit": "%"}, {"measurement": "Post-emergence action AVEFA", "setting": "Avena fatua (AVEFA); [24]", "value": 80, "unit": "%"}, {"measurement": "Post-emergence action POLCO", "setting": "[17]", "value": 90, "unit": "%"}, {"measurement": "Herbicidal action against SETVI", "setting": "Setaria viridis (SETVI) [18]; [22]", "value": 70, "unit": "%"}, {"measurement": "Post-emergence action SETVI", "setting": "Setaria viridis (SETVI) [18]; [24]", "value": 80, "unit": "%"}, {"measurement": "Herbicidal action against LOLMU", "setting": "[19]", "value": 40, "unit": "%"}, {"measurement": "Herbicidal action against STEME", "setting": "Stellaria media (STEME) [20]; [22]", "value": 100, "unit": "%"}, {"measurement": "Post-emergence action STEME", "setting": "Stellaria media (STEME) [20]; [24]", "value": 100, "unit": "%"}, {"measurement": "herbicidal action against harmful plants (in words)", "setting": "[21]", "value": "good herbicidal action"}]}
